What all share (type): physicochemical
Data set [1] can be described thus: acid dissociation of the indicator in its electronically excited state (pKa *). The following applies: for pKa * value in the excited state exceeds the pKa value in the ground state by: increase. The text has this: S and .tau.B of the acidic forms (AH*, BH^+*) and basic forms (S^-*, B*) of the indicator differ from each other. In both fundamental instances the measured luminescence decay time .tau. is a function of the luminescence decay times .tau.B and .tau.S, their weighting depending on the pH prevailing in the sample.
The pKa * value of the electronically excited acid (AH* or BH^+*) is in the relevant measuring range.

Data set [2] in a line: luminescence decay time of the acidic and basic forms of the indicator in the excited state. The following applies: for luminescence decay time excited state .tau.(AH*): excited acid AH*; for luminescence decay time excited state .tau.(A-*): excited conjugate base A^-*; for luminescence decay time excited state .tau.(B*): excited base B*; for luminescence decay time excited state .tau.(BH+*): excited conjugate acid BH^+*. The procedure:
.tau. lifetime of the excited state (luminescence
(§1) In an embodiment of the invention referring to item 1, the indicator is immobilized on a solid substrate, for example, and is brought into contact with the sample. […] After separation of the exciting light by means of a cut-off filter, fluorescence is detected over a broad band of the spectrum (for instance, by means of a photomultiplier or a pin photodiode) and decay time is measured electronically. As dissociation takes place in the ground state, both the absorption spectrum and the fluorescence spectrum are modified, which will have no negative effect on the measurement, however, due to the broad-band character of excitation and detection, or rather, due to the choice of the excitation wavelength in the overlap region of the absorption spectra and the broad detection band. Via a stored calibrating function the recorded decay times may be converted into pH values by a computer.
(§2) In an embodiment of the invention referring to item 2, a suitable indicator is immobilized on a solid substrate, and is dipped into the sample. Excitation takes place monochromatically with the use of a short-time light source (e.g., a coaxial flashlamp) and a color filter tuned to the absorption wavelength of the indicator (e.g., an interference filter). After separation of the exciting light by means of a cut-off filter, emission is detected over a broad band of the spectrum (for instance, by means of a photomultiplier or a pin photodiode). The pH value again is determined from the measured decay time via a stored calibrating function.

Data set [3] in a line: excitation/emission maxima of the acidic and basic forms of the indicator. The following applies: for emission maximum acidic form / excitation maximum acidic form: AH; for emission maximum conjugate basic form / excitation maximum conjugate basic form: A^-; for emission maximum basic form / excitation maximum basic form: B; for emission maximum conjugate acidic form / excitation maximum conjugate acidic form: BH^+. The procedure: as §1, §2

Data set [4] can be described thus: pH measuring range of the indicator via luminescence decay time. The procedure:
as §1, §2

A short description of data set [5]: acid dissociation of the indicator in its electronic ground state (pKa). The following applies: for pKa acidic form (AH) in ground state: indicator acid AH; for pKa acidic form (BH^+) in ground state: indicator base, conjugate acid BH^+. The text has this:
Ka acid constant (dissociation equilibrium
pK value of an acid or conjugate acid
The pKa value of the electronically non-excited acid (AH or BH^+) is in the relevant measuring range.

Setting [6] is: excited vs ground state, decrease.

Where two headings read alike, the source gives them in different places.

For `O=C(O)Cc1c[nH]c2ccccc12` [3-indolylacetic acid], in data set [1], the “pKa * value in the excited state is lower than the pKa value in the ground state by” value is on record as “approx. 2 units”. Further, in data set [2], the “luminescence decay time excited state .tau.(AH*)” value stood at 2.5 ns and the “luminescence decay time excited state .tau.(A-*)” value was found to be 9.0 ns. For the same molecule, in data set [3], the “emission maximum acidic form” value is recorded as 340 nm, the “excitation maximum acidic form” value is on record as 278 nm, the “emission maximum conjugate basic form” value worked out at 340 nm and the “excitation maximum conjugate basic form” value amounted to 285 nm. Also, in data set [4], the measuring range is 2-4 pH. Also, in data set [5], the “pKa acidic form (AH) in ground state” value is on record as about 3.

As for `O=c1c2ccccc2[nH]c2ccccc12` [9(10H)-acridone], the “pKa * value in the excited state exceeds the pKa value in the ground state by” value in data set [1] (excited vs ground state) stood at 1.7 units. Besides, in data set [2], the “luminescence decay time excited state .tau.(B*)” value stood at 26 ns and the “luminescence decay time excited state .tau.(BH+*)” value is 15 ns. For the same molecule, in data set [3], the “emission maximum basic form” value is 440 nm, the “excitation maximum basic form” value was 383 nm, the “emission maximum conjugate acidic form” value is listed as 456 nm and the “excitation maximum conjugate acidic form” value was 399 nm. Besides, in data set [4], the measuring range is listed as 0.5-2.5 pH. Besides, in data set [5], the “pKa acidic form (BH^+) in ground state” value amounted to 0.02.

Turning to `c1ccc2nc3ccccc3cc2c1` [Acridine], the “pKa * value in the excited state exceeds the pKa value in the ground state by” value in data set [1] (excited vs ground state) is 5.25 units. Moreover, in data set [2], the “luminescence decay time excited state .tau.(B*)” value was 14 ns and the “luminescence decay time excited state .tau.(BH+*)” value is reported as 33 ns. For the same molecule, in data set [3], the “emission maximum basic form” value is 430 nm, the “excitation maximum basic form” value amounted to 356 nm, the “emission maximum conjugate acidic form” value is on record as 475 nm and the “excitation maximum conjugate acidic form” value is reported as 356 nm. The measuring range in data set [4] is given as 4.0-7.0 pH. For the same molecule, in data set [5], the “pKa acidic form (BH^+) in ground state” value is 5.45.

Consider `Oc1ccc2ccccc2c1` [Example 2-naphthol, 2-naphthol], for which, in data set [1] (setting [6]), the “pKa * value in the excited state is lower than the pKa value in the ground state by” value is listed as 7 units. In addition, in data set [2], the “luminescence decay time excited state .tau.(AH*)” value amounted to 9.0 ns and the “luminescence decay time excited state .tau.(A-*)” value was 4.8 ns. In data set [3], the “emission maximum acidic form” value is reported as 356 nm, the “excitation maximum acidic form” value came to 328 nm, the “emission maximum conjugate basic form” value is listed as 410 nm and the “excitation maximum conjugate basic form” value was determined as 348 nm. Further, in data set [4], the measuring range was 1.2-4.3 pH. In addition, the “pKa acidic form (AH) in ground state” value in data set [5] is about 9.8.

With `O=Cc1ccccc1O` [Salicylaldehyde], the “pKa * value in the excited state is lower than the pKa value in the ground state by” value in data set [1] (setting [6]) was “approx. 6.5 units”. In addition, in data set [2], the “luminescence decay time excited state .tau.(AH*)” value is under 1 ns and the “luminescence decay time excited state .tau.(A-*)” value is on record as about 3 ns. In data set [3], the “emission maximum acidic form” value was found to be 525 nm, the “excitation maximum acidic form” value is reported as 327 nm, the “emission maximum conjugate basic form” value turned out to be 400 nm and the “excitation maximum conjugate basic form” value was determined as 380 nm. Moreover, the measuring range in data set [4] is given as 7-10 pH. Moreover, in data set [5], the “pKa acidic form (AH) in ground state” value is listed as about 8.5.

Values taken from patent US5308581A, “Substance of an optical fluorescence measuring arrangement for measuring the pH of a sample and optical sensor with such an indicator substance” (AVL Medical Instruments AG, priority 1990, dated 1994).
